Measured values as given in US20250312289A1, “METHODS AND COMPOSITIONS COMPRISING TOBACCO MILD GREEN MOSAIC VIRUS (TMGMV)” (priority 2022, published 2025).

Experiments:
β-CD-TMGMV = assay: Doxorubicin competition (displacement) assay for loading onto β-CD-TMGMV; type: binding; details: competitor at 1000 eq, overnight at 4° C.
Procedure: To assess loading of pesticides to β-CD-TMGMV, competition assays were completed between Doxorubicin (ApexBio) and the target molecules. Samples of 100 μL volume were prepared in a 96-well plate (Costar). For sample wells, 0.0825 mg of β-CD-conjugated TMGMV in KP buffer were added to the wells, in addition with doxorubicin at 10 eqβ-CD-TMIGMV (molar equivalents to β-CD-conjugated TMGMV).
Three control conditions were utilized: 1 eq TMGMV, 575 eq β-CD, and 1 eq TMGMV with 575 eq β-CD (non-conjugated). These control wells also received doxorubicin at 10 eq. The plate was incubated overnight at 4° C. on a plate rocker (Fisher). Fluorescence top readings were conducted on the plate (excitation 470 nm, emission 595 nm, 25 flashes) via UV-Vis Plate Reader (Tecan infinite 200Pro). […] Following a repeat overnight incubation at 4° C. on a plate rocker (Fisher), fluorescent reading was repeated as before.
Samples of 100 μL volume were prepared in a 96-well plate (Costar). For sample wells, 0.0825 mg of β-CD-conjugated TMGMV in KP buffer were added to the wells, in addition with doxorubicin at 10 eq (molar equivalents to β-CD-conjugated TMGMV). […] Fluorescence top readings were then conducted on the plate (excitation 470 nm, emission 595 nm, 25 flashes) via UV-Vis Plate Reader (Tecan infinite 200Pro). […] The fluorescence was then read on the plate reader as described before. […]

[1] = cited from earlier work
TMGMV [2] = assay: TEM/ImageJ width of TMGMV infused with AI by partial dissociation (breathing), Example 3; type: physicochemical, Tobacco Mild Green Mosaic Virus; details: pH 7.5, 5 days, 500:1 equivalence ratio; TEM; control 18 nm
Procedure: TMGMV at a concentration of 5 mg mL^−1 in KP buffer at pH 7.5 was kept for 5 days at 4° C. Addition of the target AI to the solution was done every 24 h until reaching a 500:1 equivalence ratio and left mixing on a rotary shaker. Afterwards, the solution was centrifuged at 50,000 rpm in the tabletop ultracentrifuge (Beckman Optima MAX-XP with TLA-55 rotor) for 1 hour on a sucrose cushion (30% w/v). The viral pellet was then resuspended in 10 mM KP pH 7 overnight at 4° C. on a rotary shaker. After total resuspension, the solution was dialyzed for 48 h to remove excess (non-entrapped) AI.
Samples were diluted to the concentration of 0.05 mg mL^−1 and absorbed onto carbon-coated TEM grids (Electron Microscopy Sciences). The grids were then washed three times with pure water. Then, grids were stained by 2% (w/v) uranyl acetate for 2 min for imaging. TEM was conducted using a FEI Tecnai F30 transmission electron microscope operated at 300 kV.
Experiments were conducted to load pesticides into TMGMV by strategically altering the pH. Without being bound by theory, this entraps Als through the formation of “pockets” between coat proteins (CPs). Without being bound by theory, the rationale is that by increasing the pH of the buffer, the virus will start to dissociate and hydrophobic pockets will get created between the virion's coat proteins. AIs are then added to interact with the virus particles and then the pH is decreased to promote particles' self-assembly and entrapment of AI on the hydrophobic pockets (see schematic of FIG. 7). As discussed above, TMGMV at a concentration of 5 mg mL-1 in KP buffer at pH 7.5 was kept for at 4° C. for 5 days, and the target AI was added to the solution every 24 h until reaching a 500:1 equivalence ratio. Afterwards, the solution was centrifuged at 50,000 rpm for 1 hour on a sucrose cushion (30% w/v). The viral pellet was then resuspended in 10 mM KP pH 7 overnight at 4° C., and after total resuspension, the solution was dialyzed for 48 h to remove excess (non-entrapped) AI. Samples were then observed at TEM and analyzed using ImageJ.
To determine the change in width (breathing/infusion) of the nanoparticles, the width of sections of 100 nm in length of nanoparticles (as shown in the micrography of FIG. 8) was measured. This was done to standardize the measurements and determine the change in width. At least 5 different sections were measured per micrography, and at least 30 sections were measured in total per sample.

TMGMV [3] = assay: Quantitative TEM width analysis of AI-loaded TMGMV prepared via pH and DMSO methods, Example 6; type: physicochemical, Tobacco Mild Green Mosaic Virus; details: negative-stain TEM, native 15.7 nm; for maximum width of AI-loaded TMGMV: pH and DMSO methods
Procedure: (§1) Loading of AI into TMGMV via the “pH method” was performed. TMGMV at a concentration of 1 mg mL^−1 in 10 mM KP buffer at pH 7.5 was kept for 10 days at 4° C. The following AIs were used: fluopyram and clothianidin, (BASF, Berkeley, CA, USA), rifampicin and ivermectin (BioVision; Milpitas, CA, USA). Cy5 (Lumiprobe; Cockeysville, MD, USA) and doxorubicin (ApexBio; Houston, TX, USA) were also studied as proof of concept (fluorescent molecule and cancer chemotherapy). The AI was added to TMGMV by adding an excess of 10:1 AI:coat protein (CP; each TMGMV rod is assembled from ˜2,100 identical CPs) every day until a ratio of 100:1 was reached. During this process the reaction was kept mixing on a rotary shaker. 1 mL aliquots were obtained each day for further analysis.
(§2) Loading of AI into TMGMV via the “DMSO method” was performed. TMGMV in 10 mM KP buffer (pH 7.2) was diluted to 5 mg mL-1 in 2 mL of buffer and transferred to a 25 mL beaker and magnetically stirred at 300 rpm at room temperature. A solution of DMSO and 10 mM KP was added dropwise to dilute the solution to a 20% (v/v) concentration of DMSO and 2 mg mL-1 of TMGMV. Aliquots of the AIs were added dropwise to the solution to prevent precipitation. The solutions were left to stir at room temperature for 24 hours. The samples were collected and spin filtered as described above before being stored at 4° C.
TMGMV samples were diluted to a concentration of 0.05 mg mL-1 and absorbed onto carbon-coated TEM grids (Electron Microscopy Sciences, Hatfield, PA, USA). The grids were then washed three times with pure water. Then, grids were stained by 2% (w/v) uranyl acetate for 90 seconds. TEM was conducted using a FEI Tecnai F30 transmission electron microscope operated at 300 kV. Image analysis was performed using ImageJ software (https://imagej.nih.gov/ij/download.html). To determine the change in width of the nanoparticles, the width of sections of 100 nm in length was measured for standardization purposes. Five different sections were measured per micrography and 30 of them in total per sample. Subsequently, for the complete particle, the length, the perimeter and the area were measured, to later calculate the average width from the perimeter.
TEM imaging and quantitative TEM imaging analysis of the AI-loaded TMGMV nanoparticles prepared by the pH method and the DMSO method was performed. […] To gain insights into the degree of structural changes, quantitative TEM image analysis was performed comparing native vs. the AI-laden TMGMV. Based on the negative stain, native virions were 15.7 nm in width in average (±1.9 nm), which is an underestimation to native TMGMV of 18 nm. This may be due to the uranyl acetate negative staining yielding a heavy shadow on the borders of the virion, apparently reducing its width. While there was no statistical significance between the controls that underwent both methodologies (FIG. 27), for each compound the increment (in comparison to native TMGMV) was different, as well as between methodologies (FIG. 17A).

TMGMV [4] = assay: Quantification of loaded AI in TMGMV by HPLC; type: physicochemical, Tobacco Mild Green Mosaic Virus; details: for Detected in sample / Molecules per CP / Molecules per virion: HPLC
Procedure: as §1
After AI loading, the aliquots were spin-filtered using 100K molecular weight cut-off 0.5 mL filters (MilliporeSigma, Burlington, MA, USA). 200 μL of the aliquot and 250 μL of KP solution were added and then centrifuged at 16,160×g for 5 minutes at 4° C., the flow-through was discarded, and then 450 μL of KP was added and centrifuged again, this step was repeated 3 times. After the third centrifugation, the filter was inverted in a new tube and centrifuged at 1000×g for 2 minutes, to recover the supernatant and carry out the subsequent characterization.
as §2
For HPLC, AI was extracted from TMGMV. In brief, the concentration of TMGMV samples was adjusted to 1.2 mg mL-1 in KP. The solution was diluted 4-fold into a 1:1 acetonitrile/:methanol mixture and vortexed for 30 seconds. The solution was centrifuged at 10,000×g for 10 minutes at 4° C. and the organic phase (bottom fraction) was collected and transferred to an HPLC 2 mL glass screw top vial (SureSTART, Thermo Scientific, Waltham, MA, USA).
After a 10-fold dilution in acetonitrile, the extracted samples were injected at 500 μL and run on 5 μm C18 column (20×100 mm) using a Shimadzu LC-40 HPLC system (Columbia, MD, USA). The method was run at 0.5 mL min-1 in a gradient of acetonitrile and 0.02% (v/v) phosphoric acid for 15 minutes per sample. A photodiode array was used to collect absorbance values at 280 nm (fluopyram), 269 nm (clothianidin), 225 nm (ivermectin), and 330 nm (rifampicin). The absorbance values were fitted to a standard curve to identify sample concentration with N=3.

TMGMV [5] = assay: Size exclusion chromatography with absorbance (Beer-Lambert) loading determination; type: physicochemical, Tobacco Mild Green Mosaic Virus; details: SEC absorbance 480 nm / 647 nm, Beer-Lambert law
Procedure: TMGMV samples (500 μL at 0.5 mg/mL) were analyzed using a Superose6 Increase 100 GL column and an AKTA Pure25 chromatography system (GE Healthcare, Chicago, Il, USA) using a flow rate 0.5 mL/min in 10 mM KP (pH 7.4). […]
Size exclusion chromatography (SEC) was performed to further verify structural integrity of the AI-laden TMGMV particles during post-processing and purification.

[6] = DMSO method (20% v/v, 24 hours)

Compound | doxorubicin initially bound to β-CD-TMGMV displaced (β-CD-TMGMV) | logP [1] | average width of infused TMGMV (TMGMV [2]) | increase in width vs native TMGMV control (TMGMV [2]) | width increase compared to negatively-stained native TMGMV (TMGMV [3]) | less loading using DMSO method vs pH method (TMGMV [4]; 24 hour DMSO vs 10-day pH) | Detected in sample (TMGMV [4]; [6]) | Molecules per CP (TMGMV [4]; [6]) | Molecules per virion (TMGMV [4]; [6]) | Detected in sample (TMGMV [4]; pH method (pH 7.5, 10 days)) | Molecules per CP (TMGMV [4]; pH method (pH 7.5, 10 days)) | Molecules per virion (TMGMV [4]; pH method (pH 7.5, 10 days)) | loading, molecules per TMGMV (TMGMV [5]) | maximum width of AI-loaded TMGMV (TMGMV [3]) | increase in loading using DMSO method vs pH method (TMGMV [4]; 24 hour DMSO vs 10-day pH)
CN/C(=N\[N+](=O)[O-])NCc1cnc(Cl)s1 [Clothianidin, clothianidin] | 17.60% | 1.3 | 26 nm | 38% | 65% | about 10% | 2.06 µg/mL | 0.47 | 995 | 2.29 µg/mL | 0.52 | 1107.55 | – | – | –
COc1cccc2c1C(=O)c1c(O)c3c(c(O)c1C2=O)C[C@@](O)(C(=O)CO)C[C@@H]3O[C@H]1C[C@H](N)[C@H](O)[C@H](C)O1 [Doxorubicin, doxorubicin] | – | 0.02 | 35 nm | 89% | – | – | – | – | – | – | – | – | ~615 | – | –
O=C(NCCc1ncc(C(F)(F)F)cc1Cl)c1ccccc1C(F)(F)F [Fluopyram, fluopyram] | 18.34% | 3.33 | 22 nm | 21% | 14% | – | 0.61 µg/mL | 0.087 | 185.59 | 0.05 µg/mL | 0.007 | – | – | 18 nm | 11.7 fold
CO[C@H]1/C=C/O[C@@]2(C)Oc3c(C)c(O)c4c(O)c(c(/C=N/N5CCN(C)CC5)c(O)c4c3C2=O)NC(=O)/C(C)=C\C=C\[C@H](C)[C@H](O)[C@@H](C)[C@@H](O)[C@@H](C)[C@H](OC(C)=O)[C@@H]1C [Rifampicin, rifampicin] | – | 2.4 | – | – | – | – | – | – | – | – | – | – | – | – | –
cyanine5 [Cyanine 5] | – | 3.84 | – | – | – | – | – | – | – | – | – | – | ~80 | – | –
ivermectin | – | 4.4 | – | – | 46% | – | 0.44 µg/mL | 0.029 | 61.63 | 0.02 µg/mL | 0.001 | 2.89 | – | 23 nm | 21.3 fold
